Experimental findings from US20030100034A1, “9136, a human aldehyde dehydrogenase family member and uses therefor” (Millennium Pharmaceuticals, Inc., priority 2001, published 2003) are described below.

This experiment concerns 9136 in NCI-H125 cells. As to the kind of experiment: 9136 expression after 4HT induction of p53ER in NCI-H125 cells. Format: cell-based, human. The method, then: Total RNA was prepared from various human tissues by a single step extraction method using RNA STAT-60 according to the manufacturer's instructions (TelTest, Inc). Each RNA preparation was treated with DNase I (Ambion) at 37° C. for 1 hour. DNAse I treatment was determined to be complete if the sample required at least 38 PCR amplification cycles to reach a threshold level of fluorescence using β-2 microglobulin as an internal amplicon reference. The integrity of the RNA samples following DNase I treatment was confirmed by agarose gel electrophoresis and ethidium bromide staining. After phenol extraction cDNA was prepared from the sample using the SUPERSCRIPT™ Choice System following the manufacturer's instructions (GibcoBRL). A negative control of RNA without reverse transcriptase was mock reverse transcribed for each RNA sample. Human 9136 expression was measured by TaqMan® & quantitative PCR (Perkin Elmer Applied Biosystems) in cDNA prepared from a variety of normal and diseased (e.g., cancerous) human tissues or cell lines. Probes were designed by PrimerExpress software (PE Biosystems) based on the sequence of the human 9136 gene. Each human 9136 gene probe was labeled using FAM (6-carboxyfluorescein), and the β2-microglobulin reference probe was labeled with a different fluorescent dye, VIC. The differential labeling of the target gene and internal reference gene thus enabled measurement in same well. Forward and reverse primers and the probes for both β2-microglobulin and target gene were added to the TaqMan® Universal PCR Master Mix (PE Applied Biosystems). Although the final concentration of primer and probe could vary, each was internally consistent within a given experiment. A typical experiment contained 200 nM of forward and reverse primers plus 100 nM probe for β-2 microglobulin and 600 nM forward and reverse primers plus 200 nM probe for the target gene. TaqMan matrix experiments were carried out on an ABI PRISM 7700 Sequence Detection System (PE Applied Biosystems). The thermal cycler conditions were as follows: hold for 2 min at 50° C. and 10 min at 95° C., followed by two-step PCR for 40 cycles of 95° C. for 15 sec followed by 60° C. for 1 min.
The following method was used to quantitatively calculate human 9136 gene expression in the various tissues relative to β-2 microglobulin expression in the same tissue. The threshold cycle (Ct) value is defined as the cycle at which a statistically significant increase in fluorescence is detected. A lower Ct value is indicative of a higher mRNA concentration. The Ct value of the human 9136 gene is normalized by subtracting the Ct value of the β-2 microglobulin gene to obtain a ΔCt value using the following formula: ΔCt=[…]−Ctβ-2 microglobulin. Expression is then calibrated against a cDNA sample showing a comparatively low level of expression of the human 9136 gene. The ΔCt value for the calibrator sample is then subtracted from ΔCt for each tissue sample according to the following formula: ΔΔCt=ΔCt-sample−ΔCt-calibrator. Relative expression is then calculated using the arithmetic formula given by 2^−ΔΔCt. Relative expression levels of the target human 9136 gene in each of the tissues tested is then graphically represented as discussed in more detail below.
In addition, a study of the 9136 gene expression levels, with or without introduction of p53 expression, was carried out in several carcinoma cell lines. The p53 tumor suppressor gene has been the subject of intense study for a number of years. […] One of those identified genes is 9136, which, as mentioned earlier, is the human ALDH6 gene.

Consider `CC/C(=C(\c1ccc(O)cc1)c1ccc(OCCN(C)C)cc1)c1ccccc1` [4HT], for which the “9136 Expression” value (0 hr post-4HT induction) came out at 5.82; the “9136 Expression” value (5 min post-4HT induction) is 6.29; the “9136 Expression” value (20 min post-4HT induction) was 5.64; the “9136 Expression” value (1 hr post-4HT induction) stood at 5.60; the “9136 Expression” value (3 hr post-4HT induction) was 5.83; the “9136 Expression” value (9 hr post-4HT induction) was 5.10. Further, the “9136 Expression” value worked out at 3.1 (24 hr post-4HT induction) and 3.03 (48 hr post-4HT induction).
